The source of these data is patent US20240300945A1, “CLY SERIES COMPOUND, PREPARATION METHOD THEREFOR AND USE THEREOF IN PREPARATION OF DRUGS” (NANJING WELLBEST PHARMACEUTICAL CO., LTD, priority 2021, published 2024).

One data set concerns rat scar model. Nature of the data set: Rat scar model (skin wound healing). As to conditions: rat back wound 2.4 cm; 0.5% cream on the skin. Format: in vivo. From the text: 1.1 Preparation method of treatment cream: The excipient matrix components included methyl silicone oil (15%), stearic acid (6%), white vaseline (5%), liquid paraffin (5%), octadecanol (5%), glycerin (20%), alkylaryl polyglycol ether (1%), fatty alcohol polyoxyethylene ether (1%), […] (1%), ethyl paraben (0.1%), distilled water (about 31-55%), and mixed with appropriate amount of CLY series compounds to form a mixed emulsion. The emulsion matrix used in this embodiment refers to the matrix component after the active ingredient was removed from the emulsion.
1.2 Grouping and modeling of experimental animals: SPF grade male rats, weighing (210±28) g, from the Animal Center of Nanyi University. The rats were numbered according to their body weight and using the random array method, samples were divided into the model control group (applied cream matrix), CLY-1 treatment group (applied 0.5% CLY-1 cream on the skin), CLY-2 treatment group (applied 0.5% CLY-2 cream on the skin), CLY-3 treatment group (0.5% CLY-3 cream on the skin), CLY-4 treatment group (0.5% CLY-4 cream on the skin), CLY-8 treatment group (0.5% CLY-8 cream on the skin), CLY-11 treatment group (0.5% CLY-11 cream on the skin) CLY-19 treatment group (0.5% CLY-19 cream on the skin), CLY-36 treatment group (0.5% CLY-36 cream on the skin), and CLY-39 treatment group (0.5% CLY-39 cream on the skin), 6 in each group. Rats in each group were anesthetized by intraperitoneal injection of 2% pentobarbital sodium (120 mg/kg) and fixed on the operating table, and then chose a piece of 4×5 cm of intact skin on the back, 8% sodium sulfide hair removal, used tissue scissors to cut a wound with a diameter of 2.4 cm and a depth of muscle fascia at the hair removal site, and damage part of the muscle surface fascia. Animals were kept in separate cages to prevent rats from biting and licking. Applied 2% iodine tincture daily to the wound for routine disinfection, and observed the wound healing of rats.
The wounds were routinely disinfected every day, and the wounds of rats were observed on the 1st, 3rd, 5th, 7th, 12th, and 20th days. […] On the 12th day, the wounds in each treatment group had basically recovered, while the model group still had about 0.5 cm2 of wounds. By the 20th day, the wounds in each group had recovered, and the model control group left obvious scars, while each treatment group only left different amounts of pigmentation.

Another data set relates to rabbit ear acne model. Nature of the data set: Rabbit ear acne model: macroscopic observation and histological grading. Format: in vivo, New Zealand rabbits. As to conditions: right ear, 10 per group; for number of rabbits with acne histological grading 2+: Grade 2; for number of rabbits with acne histological grading —: Level 0, without acne; for number of rabbits with acne histological grading 1+: Level 1; for number of rabbits with acne histological grading 3+: Level 3. From the text:
(1) Preparation method of treatment cream: The excipient matrix components included methyl silicone oil (15%), stearic acid (6%), white vaseline (5%), liquid paraffin (5%), octadecanol (5%), glycerin (20%), alkyl aryl polyglycol ether (1%), fatty alcohol polyoxyethylene ether (1%), […] (1%), ethyl paraben (0.1%), distilled water (about 31-55%), and mixed with appropriate amount of CLY series compounds to form a mixed emulsion. The emulsion matrix used in this embodiment refers to the matrix component after the active ingredient was removed from the emulsion.
(2) Positive therapeutic drug: 0.1% adapalene gel (Trade name: Differin, produced by Laboratoires Galderma, France).
New Zealand rabbits were, according to weights, randomly divided into the model control group (applied cream matrix), positive treatment group (applied Differin on the skin), CLY-1 external treatment group (0.25% CLY-1 cream on the skin), CLY-2 external treatment group (0.25% CLY-2 cream on the skin), CLY-3 external treatment group (0.25% CLY-3 cream on the skin), CLY-4 external treatment group (0.25% CLY-4 cream on the skin) CLY-8 external treatment group (0.25% CLY-8 cream on the skin), CLY-9 external treatment group (0.25% CLY-9 cream on the skin), CLY-11 external treatment group (0.25% CLY-11 cream on the skin), CLY-19 external treatment group (0.25% CLY-19 cream on the skin), CLY-36 external treatment group (0.25% CLY-36 cream on the skin); CLY-1 intravenous injection group (1 mg/kg·d), CLY-2 intravenous injection group (1 mg/kg·d), CLY-3 intravenous injection group (1 mg/kg·d), CLY-4 intravenous injection group (1 mg/kg·d), CLY-8 intravenous injection group (1 mg/kg·d), CLY-9 intravenous injection group (1 mg/kg·d), CLY-11 intravenous injection group (1 mg/kg·d), CLY-19 intravenous injection group (1 mg/kg·d), and CLY-36 intravenous injection group (1 mg/kg·d), with 10 in each group. Took the inner side of the rabbit's right ear for depilation treatment as the observation area, and the inner side of the left ear of all rabbits as their own negative control, and applied 95% alcohol. The inner side of the right ear of the model group and the treatment group were both coated with 2% coal tar (Alfa Aesar China, which used 95% alcohol to prepare 2% coal tar solution), and evenly applied the sterile cotton swab to the opening of the ear duct on the inner side of the rabbit's ear within the range of about 2 cm×2 cm, once a day, 0.5 mL each time, and wiped the previous application site with warm water for 14 consecutive days to establish the acne micro-pigmentation model. Visually observed the changes of local skin, including ear thickness, hardness, roughness, and whether there was a black angle plug at the hair follicle mouth. 18 hours after the last application, the sample was sacrificed and skin was taken. The skin tissue was taken from the application site by using a 5 mm punch, fixed with 10% formaldehyde, embedded in paraffin, and stained with HE. The histopathological observation and analysis were carried out.
The histological grading criteria of the acne model: 3 grades according to histological grade. […] The tight keratin embolism in the hair follicles causes severe expansion of the hair follicles, obvious hyperplasia of the sebaceous duct epithelium, skin bulges and scars, and some sebaceous glands degenerate “3±”.
SPSS16 software was used for statistical analysis. The paired t-test was used for the left and right self-contrast, and the t-test was used for the comparison between the groups, P<0.05 was statistically significant.

The nature of data set [1]: Pharmacokinetic properties of rats (bioavailability). Format: in vivo. As to conditions: rat, po; male SD rats; intravenous 1 mg/kg, intragastric 5 mg/kg; plasma LC/MS/MS. Here is the method: Male SD rats were randomly assigned to each group, 12 rats in each compound group, and then randomly divided into two groups. Six rats were administered intravenously (1 mg/kg), and blood was collected and plasma was separated respectively at 0.0833, 0.25, 0.5, 1, 2, 4, 6, 8, and 24 hours after administration. The other six rats were administered intragastrically (5 mg/kg), and blood was collected and plasma was separated respectively at 0.25, 0.5, 1, 2, 4, 6, 8, and 24 hours after administration. The concentration of each compound in plasma was determined by LC/MS/MS method, and the relevant pharmacokinetic parameters were calculated by using the software Phoenix WinNonlin 6.2.1, the bioavailability in rats was calculated, and the pharmacokinetic properties of each compound were evaluated.

[2] abbreviates: external use (0.25% CLY cream; positive: Differin).
Setting [3] is: intravenous injection 1 mg/kg·d.

Each structure is given as a SMILES string.

The bioavailability is the share of a dose that reaches the circulation, judged against a reference dose that is usually intravenous. As for `O=C(c1ccc(-c2ccccc2-c2nnn[nH]2)cc1)N(c1ncccc1Cl)[C@@H]1CCCNC1` [CLY-19], the “skin wound healing and scar formation” value with rat scar model was “significantly promote skin wound healing and reduce scar formation”. Further, in the data set with rabbit ear acne model (setting [2]), the “number of rabbits with acne histological grading 2+” value is reported as 3, the “number of rabbits with acne histological grading —” value was 5, the “number of rabbits with acne histological grading 1+” value is listed as 2 and the “number of rabbits with acne histological grading 3+” value amounted to 0. Besides, in the data set with rabbit ear acne model (setting [3]), the “number of rabbits with acne histological grading 2+” value is 1, the “number of rabbits with acne histological grading —” value amounted to 8, the “number of rabbits with acne histological grading 1+” value is given as 1 and the “number of rabbits with acne histological grading 3+” value amounted to 0. Besides, the bioavailability in data set [1] came out at 66.3%.
As to `O=C(c1ccc(-c2ccccc2Cl)cc1)N(c1ncccc1Cl)[C@@H]1CCCNC1` [CLY-36], the “skin wound healing and scar formation” value in the data set on rat scar model is “significantly promote skin wound healing and reduce scar formation”. For the same compound, in the data set on rabbit ear acne model (setting [2]), the “number of rabbits with acne histological grading 2+” value was 4, the “number of rabbits with acne histological grading —” value amounted to 5, the “number of rabbits with acne histological grading 1+” value is 1 and the “number of rabbits with acne histological grading 3+” value is 0. In the data set with rabbit ear acne model (setting [3]), the “number of rabbits with acne histological grading 2+” value was 2, the “number of rabbits with acne histological grading —” value amounted to 7, the “number of rabbits with acne histological grading 1+” value was 1 and the “number of rabbits with acne histological grading 3+” value is reported as 0. In data set [1], this compound registered a bioavailability of 68.6%.
With `O=C(c1ccc(-n2nnc3cccnc32)cc1)N(c1ncccc1Cl)C1CCCC(O)C1` (stereo not drawn) [CLY-4], the “skin wound healing and scar formation” value in the data set with rat scar model is “significantly promote skin wound healing and reduce scar formation”. For the same compound, in the data set on rabbit ear acne model (setting [2]), the “number of rabbits with acne histological grading 2+” value is listed as 2, the “number of rabbits with acne histological grading —” value was determined as 3, the “number of rabbits with acne histological grading 1+” value is reported as 5 and the “number of rabbits with acne histological grading 3+” value is given as 0. Besides, in the data set on rabbit ear acne model (setting [3]), the “number of rabbits with acne histological grading 2+” value is 2, the “number of rabbits with acne histological grading —” value came out at 5, the “number of rabbits with acne histological grading 1+” value is on record as 3 and the “number of rabbits with acne histological grading 3+” value worked out at 0. Further, in data set [1], the bioavailability stood at 59.5%.
